Source: US20240148821A1, “PHARMACEUTICAL USE OF CYCLIC PEPTIDE COMPOUND” (CHUGAI SEIYAKU KABUSHIKI KAISHA, priority 2021, published 2024)
Bridge positions count the residues as written; N and C are the ends. Square brackets hold non-standard residues; d marks the D form. Peptide text beside a SMILES is read from it. * marks the point of attachment. hPhe(3-Cl-4-CF3) = N[C@@H](CCc1ccc(C(F)(F)F)c(Cl)c1)C(=O)O; NMeAbu(4,4,4-F3) = CN[C@@H](CC(F)(F)F)C(=O)O; NMePhe(4-Me) = CN[C@@H](Cc1ccc(C)cc1)C(=O)O; NMePhe(4-F) = CN[C@@H](Cc1ccc(F)cc1)C(=O)O; NMeAla(cPent) = CN[C@@H](CC1CCCC1)C(=O)O; NMeNva(5,5-F2) = CN[C@@H](CCC(F)F)C(=O)O; NMeCha = CN[C@@H](CC1CCCCC1)C(=O)O; NMeGly(cPr) = CN[C@H](C(=O)O)C1CC1; NMeAhp(2) = CCCCC[C@H](NC)C(=O)O; NMeChg = CN[C@H](C(=O)O)C1CCCCC1; NMeI = CC[C@H](C)[C@H](NC)C(=O)O; NMeD = CN[C@@H](CC(=O)O)C(=O)O; NMeL = CN[C@@H](CC(C)C)C(=O)O; hLeu = CC(C)CC[C@H](N)C(=O)O; NMeV = CN[C@H](C(=O)O)C(C)C; d(β3hA) = C[C@@H](N)CC(=O)O; NMeAbu = CC[C@H](NC)C(=O)O; NMeS = CN[C@@H](CO)C(=O)O; Morpholide = C1CN(*)CCO1; NMeA = CN[C@@H](C)C(=O)O; Nphe = O=C(O)CNCc1ccccc1; Piperidide = C1CCN(*)CC1; Pyrrolidide = C1CCN(*)C1; dNMeA = CN[C@H](C)C(=O)O; Ac5c = NC1(C(=O)O)CCCC1; Aze = O=C(O)[C@@H]1CCN1; Ac3c = NC1(C(=O)O)CC1; Cyclopropyl = C1CC1*; Sar = CNCC(=O)O

How the values were obtained:
[1] = biological target: protein-protein interaction between Kras and SOS1 (biotin-tagged human Kras loaded with GDP, His-tagged human SOS1) (Homo sapiens (Human), UniProt P01116, G12D); assay: Protein-protein interaction inhibition between Kras and SOS1 (KrasG12D-SOS PPI) using AlphaScreen; type: biochemical; conditions: AlphaScreen; biotin-tagged human Kras loaded with GDP, His-tagged human SOS1; read-out: KRAS G12D-SOS PPI IC50;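 further: kras produced in E. coli, Ni-coupled donor beads and streptavidin acceptor beads, excitation 680 nm with emission detected at 520–620 nm via singlet oxygen transfer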
[2] = test system: Human pancreatic cancer cell line AsPC-1 (G12D mutation Kras); assay: AsPC-1 cell growth inhibition (AsPC-1 CGI); type: cell-based; conditions: read-out: AsPC-1 cell growth inhibition, 50% growth inhibitory concentration (IC50 value); 96 hours, CellTiter-Glo, values classified in ranges
Description: Test compounds were serially dilated with dimethyl sulfoxide, and 200 nL was then dispensed to a U-bottom 96-well plate using Labcyte Echo. […] The cell suspension was dispensed to a. plate containing a test compound at 100 μL per well and incubated at 37° C. in a 5% carbon dioxide gas incubator. 96 hours later, 80 μL of CellTiter-Glo (Promega) was added to each well and fluorescence was measured.

Compound | IC50 [1] [µM] | IC50 [2] [µM]
CC[C@H](C)[C@@H]1NC(=O)[C@H](C)N(C)C(=O)C[C@@H](C(=O)N2CCCCC2)N(C)C(=O)[C@H](C(C)C)N(C)C(=O)C2(CCCC2)NC(=O)[C@@H]2CCCN2C(=O)[C@H](CCc2ccc(C(F)(F)F)c(Cl)c2)NC(=O)CN(C)C(=O)[C@H](CC2CCCCC2)N(C)C(=O)[C@@H]2CCN2C(=O)[C@H](CC2CCCC2)N(C)C1=O [Compound 1566] ([NMeA]I[NMeAla(cPent)][Aze][NMeCha][Sar][hPhe(3-Cl-4-CF3)]P[Ac5c][NMeV][NMeD]-Piperidide; lactam N-11) | 0.02 | > 0.5
CC[C@H](C)[C@@H]1NC(=O)[C@H](CC(C)C)N(C)C(=O)C[C@@H](C(=O)N2CCCCC2)N(C)C(=O)[C@H](C(C)C)N(C)C(=O)C2(CCCC2)NC(=O)[C@@H]2CCCN2C(=O)[C@H](CCc2ccc(C(F)(F)F)c(Cl)c2)NC(=O)CN(C)C(=O)[C@H](CC2CCCCC2)N(C)C(=O)[C@@H]2CCN2C(=O)[C@H](CC2CCCCC2)N(C)C1=O [Compound 1574] ([NMeL]I[NMeCha][Aze][NMeCha][Sar][hPhe(3-Cl-4-CF3)]P[Ac5c][NMeV][NMeD]-Piperidide; lactam N-11) | 0.035 | > 0.5
CC[C@H](C)[C@@H]1NC(=O)[C@H](CC(C)C)N(C)C(=O)C[C@@H](C(=O)N2CCCC2)N(C)C(=O)[C@H]([C@@H](C)CC)N(C)C(=O)C2(CCCC2)NC(=O)[C@@H]2CCCN2C(=O)[C@H](CCc2ccc(C(F)(F)F)c(Cl)c2)NC(=O)CN(C)C(=O)[C@H](Cc2ccc(C)cc2)N(C)C(=O)[C@@H]2CCN2C(=O)[C@H](C)N(C)C1=O [Compound 1645] ([NMeL]I[NMeA][Aze][NMePhe(4-Me)][Sar][hPhe(3-Cl-4-CF3)]P[Ac5c][NMeI][NMeD]-Pyrrolidide; lactam N-11) | 0.001 | ≤ 0.02
CC[C@H](C)[C@@H]1NC(=O)[C@H](CC(C)C)N(C)C(=O)C[C@@H](C(=O)N2CCCCC2)N(C)C(=O)[C@H](CCC(F)F)N(C)C(=O)C2(CCCC2)NC(=O)[C@@H]2CCCN2C(=O)[C@H](CCc2ccc(C(F)(F)F)c(Cl)c2)NC(=O)CN(C)C(=O)[C@H](CC2CCCCC2)N(C)C(=O)[C@@H]2CCN2C(=O)[C@H](C)N(C)C1=O [Compound 1660] ([NMeL]I[NMeA][Aze][NMeCha][Sar][hPhe(3-Cl-4-CF3)]P[Ac5c][NMeNva(5,5-F2)][NMeD]-Piperidide; lactam N-11) | 0.016 | > 0.5
CC[C@H](C)[C@@H]1NC(=O)[C@H](CC(C)C)N(C)C(=O)C[C@@H](C)NC(=O)[C@H]([C@@H](C)CC)N(C)C(=O)C2(CCCC2)NC(=O)[C@@H]2CCCN2C(=O)[C@H](CCc2ccc(C(F)(F)F)c(Cl)c2)NC(=O)CN(C)C(=O)[C@H](Cc2ccc(C)cc2)N(C)C(=O)[C@@H]2CCN2C(=O)[C@H](C)N(C)C1=O [Compound 1661] (cyclo([Ac5c][NMeI][d(β3hA)][NMeL]I[NMeA][Aze][NMePhe(4-Me)][Sar][hPhe(3-Cl-4-CF3)]P)) | 0.0027 | ≤ 0.02
CC[C@H](C)[C@@H]1NC(=O)[C@H](C)N(C)C(=O)C[C@@H](C(=O)N2CCOCC2)N(C)C(=O)[C@H](C(C)C)N(C)C(=O)C2(CCCC2)NC(=O)[C@@H]2CCCN2C(=O)[C@H](CCc2ccc(C(F)(F)F)c(Cl)c2)NC(=O)[C@@H](C)N(C)C(=O)[C@H](CC2CCCCC2)N(C)C(=O)[C@@H]2CCN2C(=O)[C@H](C)N(C)C1=O [Compound 1664] ([NMeA]I[NMeA][Aze][NMeCha][dNMeA][hPhe(3-Cl-4-CF3)]P[Ac5c][NMeV][NMeD]-Morpholide; lactam N-11) | 0.0088 | > 0.5
CC[C@H](C)[C@@H]1NC(=O)[C@H](CC(C)C)N(C)C(=O)C[C@@H](C(=O)N2CCCCC2)N(C)C(=O)[C@H](C(C)C)N(C)C(=O)C2(CCCC2)NC(=O)[C@@H]2CCCN2C(=O)[C@H](CCc2ccc(C(F)(F)F)c(Cl)c2)NC(=O)CN(C)C(=O)[C@H](CC(F)(F)F)N(C)C(=O)[C@@H]2CCN2C(=O)[C@H](C)N(C)C1=O [Compound 1665] ([NMeL]I[NMeA][Aze][NMeAbu(4,4,4-F3)][Sar][hPhe(3-Cl-4-CF3)]P[Ac5c][NMeV][NMeD]-Piperidide; lactam N-11) | 0.019 | > 0.5
CC[C@H](C)[C@@H]1NC(=O)[C@H](CC(C)C)N(C)C(=O)C[C@@H](C(=O)N2CCCCC2)N(C)C(=O)[C@H](C(C)C)N(C)C(=O)C2(CCCC2)NC(=O)[C@@H]2CCCN2C(=O)[C@H](CCc2ccc(C(F)(F)F)c(Cl)c2)NC(=O)CN(C)C(=O)[C@H](C)N(C)C(=O)[C@@H]2CCN2C(=O)[C@H](C)N(C)C1=O [Compound 1674] ([NMeL]I[NMeA][Aze][NMeA][Sar][hPhe(3-Cl-4-CF3)]P[Ac5c][NMeV][NMeD]-Piperidide; lactam N-11) | 0.058 | > 0.5
CC[C@H](C)[C@@H]1NC(=O)[C@H](C)N(C)C(=O)C[C@@H](C(=O)N2CCCCC2)N(C)C(=O)[C@H](C(C)C)N(C)C(=O)C2(CCCC2)NC(=O)CN(Cc2ccccc2)C(=O)[C@H](CCc2ccc(C(F)(F)F)c(Cl)c2)NC(=O)CN(C)C(=O)[C@H](CC2CCCCC2)N(C)C(=O)CN(C)C(=O)CN(C)C1=O [Compound 1676] ([NMeA]I[Sar][Sar][NMeCha][Sar][hPhe(3-Cl-4-CF3)][Nphe][Ac5c][NMeV][NMeD]-Piperidide; lactam N-11) | 0.0016 | > 0.5
CC[C@H](C)[C@@H]1NC(=O)[C@H](CC(C)C)N(C)C(=O)C[C@@H](C(=O)N2CCCCC2)N(C)C(=O)[C@H](C(C)C)N(C)C(=O)C2(CCCC2)NC(=O)[C@@H]2CCCN2C(=O)[C@H](CCc2ccc(C(F)(F)F)c(Cl)c2)NC(=O)CN(C)C(=O)[C@H](C2CC2)N(C)C(=O)[C@@H]2CCN2C(=O)[C@H](C)N(C)C1=O [Compound 1677] ([NMeL]I[NMeA][Aze][NMeGly(cPr)][Sar][hPhe(3-Cl-4-CF3)]P[Ac5c][NMeV][NMeD]-Piperidide; lactam N-11) | 0.0086 | > 0.5
CC[C@H](C)[C@@H]1NC(=O)[C@H](CC(C)C)N(C)C(=O)C[C@@H](C(=O)N2CCCCC2)N(C)C(=O)[C@H](CC)N(C)C(=O)C2(CCCC2)NC(=O)[C@@H]2CCCN2C(=O)[C@H](CCc2ccc(C(F)(F)F)c(Cl)c2)NC(=O)CN(C)C(=O)[C@H](CC2CCCCC2)N(C)C(=O)[C@@H]2CCN2C(=O)[C@H](C)N(C)C1=O [Compound 1678] ([NMeL]I[NMeA][Aze][NMeCha][Sar][hPhe(3-Cl-4-CF3)]P[Ac5c][NMeAbu][NMeD]-Piperidide; lactam N-11) | 0.026 | > 0.5
CC[C@H](C)[C@@H]1NC(=O)[C@H](CC(C)C)N(C)C(=O)C[C@@H](C(=O)N2CCCCC2)N(C)C(=O)[C@H](COC2CC2)N(C)C(=O)C2(CCCC2)NC(=O)[C@@H]2CCCN2C(=O)[C@H](CCc2ccc(C(F)(F)F)c(Cl)c2)NC(=O)CN(C)C(=O)[C@H](CC2CCCCC2)N(C)C(=O)[C@@H]2CCN2C(=O)[C@H](C)N(C)C1=O [Compound 1690] ([NMeL]I[NMeA][Aze][NMeCha][Sar][hPhe(3-Cl-4-CF3)]P[Ac5c][NMeS](Cyclopropyl)[NMeD]-Piperidide; lactam N-11) | 0.097 | > 0.5
CC[C@H](C)[C@@H]1NC(=O)[C@H](CC(C)C)N(C)C(=O)C[C@@H](C(=O)N2CCCCC2)N(C)C(=O)[C@H](C(C)C)N(C)C(=O)C2(CC2)NC(=O)[C@@H]2CCCN2C(=O)[C@H](CCc2ccc(C(F)(F)F)c(Cl)c2)NC(=O)CN(C)C(=O)[C@H](CC2CCCCC2)N(C)C(=O)[C@@H]2CCN2C(=O)[C@H](C)N(C)C1=O [Compound 1695] ([NMeL]I[NMeA][Aze][NMeCha][Sar][hPhe(3-Cl-4-CF3)]P[Ac3c][NMeV][NMeD]-Piperidide; lactam N-11) | 0.008 | > 0.5
CC(C)CC[C@@H]1NC(=O)[C@H](CC(C)C)N(C)C(=O)C[C@@H](C(=O)N2CCCCC2)N(C)C(=O)[C@H](C(C)C)N(C)C(=O)C2(CCCC2)NC(=O)[C@@H]2CCCN2C(=O)[C@H](CCc2ccc(C(F)(F)F)c(Cl)c2)NC(=O)CN(C)C(=O)[C@H](CC2CCCCC2)N(C)C(=O)[C@@H]2CCN2C(=O)[C@H](C)N(C)C1=O [Compound 1697] ([NMeL][hLeu][NMeA][Aze][NMeCha][Sar][hPhe(3-Cl-4-CF3)]P[Ac5c][NMeV][NMeD]-Piperidide; lactam N-11) | 0.11 | > 0.5
CC[C@H](C)[C@@H]1NC(=O)[C@H](C)N(C)C(=O)C[C@@H](C)NC(=O)[C@H](C(C)C)N(C)C(=O)C2(CCCC2)NC(=O)[C@@H]2CCCN2C(=O)[C@H](CCc2ccc(C(F)(F)F)c(Cl)c2)NC(=O)[C@@H](C)N(C)C(=O)[C@H](Cc2ccc(F)cc2)N(C)C(=O)[C@@H]2CCN2C(=O)[C@H](C)N(C)C1=O [Compound 1702] (cyclo([Ac5c][NMeV][d(β3hA)][NMeA]I[NMeA][Aze][NMePhe(4-F)][dNMeA][hPhe(3-Cl-4-CF3)]P)) | 0.031 | > 0.5
CC[C@H](C)[C@@H]1NC(=O)[C@H](CC(C)C)N(C)C(=O)C[C@@H](C)NC(=O)[C@H](C2CCCCC2)N(C)C(=O)C2(CCCC2)NC(=O)[C@@H]2CCCN2C(=O)[C@H](CCc2ccc(C(F)(F)F)c(Cl)c2)NC(=O)CN(C)C(=O)[C@H](CC2CCCCC2)N(C)C(=O)[C@@H]2CCN2C(=O)[C@H](C)N(C)C1=O [Compound 1706] (cyclo([Ac5c][NMeChg][d(β3hA)][NMeL]I[NMeA][Aze][NMeCha][Sar][hPhe(3-Cl-4-CF3)]P)) | 0.14 | > 0.5
CCCCC[C@H]1C(=O)N(C)[C@H](C(=O)N2CCCCC2)CC(=O)N(C)[C@@H](CC(C)C)C(=O)N[C@@H]([C@@H](C)CC)C(=O)N(C)[C@@H](C)C(=O)N2CC[C@H]2C(=O)N(C)[C@@H](CC2CCCCC2)C(=O)N(C)CC(=O)N[C@@H](CCc2ccc(C(F)(F)F)c(Cl)c2)C(=O)N2CCC[C@H]2C(=O)NC2(CCCC2)C(=O)N1C [Compound 1707] ([NMeL]I[NMeA][Aze][NMeCha][Sar][hPhe(3-Cl-4-CF3)]P[Ac5c][NMeAhp(2)][NMeD]-Piperidide; lactam N-11) | 0.18 | > 0.5
